From ChEMBL document CHEMBL1687693, “Facile synthesis of a fluorescent cyclosporin a analogue to study cyclophilin 40 and cyclophilin 18 ligands” (ACS Med Chem Lett, 2010)

Columns and labels:
[1] = biological target: T1, Peptidyl-prolyl cis-trans isomerase A (Homo sapiens, UniProt P62937); assay: Inhibition of Cyclophilin 18 PPIase activity
[2] = biological target: T2, Peptidyl-prolyl cis-trans isomerase D (Homo sapiens, UniProt Q08752); assay: Inhibition of Cyclophilin 40 PPIase activity
[3] = biological target: T2, Peptidyl-prolyl cis-trans isomerase D; assay: Inhibition of cyclosporin binding to Cyp40 by fluorescence polarization competition assay
[4] = biological target: T1, Peptidyl-prolyl cis-trans isomerase A; assay: Inhibition of cyclosporin binding to Cyp18 by fluorescence polarization competition assay

T1 sequence (P62937 whole entry): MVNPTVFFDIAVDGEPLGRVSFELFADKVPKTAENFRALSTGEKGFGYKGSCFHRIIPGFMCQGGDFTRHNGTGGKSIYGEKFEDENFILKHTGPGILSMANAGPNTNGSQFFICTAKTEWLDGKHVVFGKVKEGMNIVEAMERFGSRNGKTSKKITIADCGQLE
T2 sequence (Q08752 whole entry): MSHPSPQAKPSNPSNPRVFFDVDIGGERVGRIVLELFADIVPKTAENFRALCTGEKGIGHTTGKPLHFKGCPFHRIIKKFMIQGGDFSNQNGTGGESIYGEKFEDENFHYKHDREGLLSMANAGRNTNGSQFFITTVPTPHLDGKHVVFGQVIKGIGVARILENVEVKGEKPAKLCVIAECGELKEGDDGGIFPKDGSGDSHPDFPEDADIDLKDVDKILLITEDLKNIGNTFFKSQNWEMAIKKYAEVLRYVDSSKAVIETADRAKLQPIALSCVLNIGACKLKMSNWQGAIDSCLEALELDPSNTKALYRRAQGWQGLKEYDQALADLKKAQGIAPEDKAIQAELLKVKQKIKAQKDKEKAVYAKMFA

Ki [1]: 106 nM
Ki [2]: 12 nM
Kd [3]: 101 nM
Kd [4]: 12 nM
SMILES: CC[C@@H]1NC(=O)[C@H]([C@H](O)[C@H](C)C/C=C/c2ccc(CNC(=O)c3ccc(-c4c5ccc(=O)cc-5oc5cc(O)ccc45)c(C(=O)O)c3)cc2)N(C)C(=O)[C@H](C(C)C)N(C)C(=O)[C@H](CC(C)C)N(C)C(=O)[C@H](CC(C)C)N(C)C(=O)[C@@H](C)NC(=O)[C@H](C)NC(=O)[C@H](CC(C)C)N(C)C(=O)[C@H](C(C)C)NC(=O)[C@H](CC(C)C)N(C)C(=O)CN(C)C1=O
